This passage reports IC50, EC50 and AC50 results from ChEMBL document CHEMBL1201862, “PubChem BioAssay data set” (2004).

SMILES strings stand for the structures. Activity calls are given as the source filed them. Some results are limits rather than exact numbers.

Assay [1] concerns the target T1, Rac GTPase-activating protein 1 (Homo sapiens, UniProt Q9H0H5).
T1 sequence (Q9H0H5 whole entry): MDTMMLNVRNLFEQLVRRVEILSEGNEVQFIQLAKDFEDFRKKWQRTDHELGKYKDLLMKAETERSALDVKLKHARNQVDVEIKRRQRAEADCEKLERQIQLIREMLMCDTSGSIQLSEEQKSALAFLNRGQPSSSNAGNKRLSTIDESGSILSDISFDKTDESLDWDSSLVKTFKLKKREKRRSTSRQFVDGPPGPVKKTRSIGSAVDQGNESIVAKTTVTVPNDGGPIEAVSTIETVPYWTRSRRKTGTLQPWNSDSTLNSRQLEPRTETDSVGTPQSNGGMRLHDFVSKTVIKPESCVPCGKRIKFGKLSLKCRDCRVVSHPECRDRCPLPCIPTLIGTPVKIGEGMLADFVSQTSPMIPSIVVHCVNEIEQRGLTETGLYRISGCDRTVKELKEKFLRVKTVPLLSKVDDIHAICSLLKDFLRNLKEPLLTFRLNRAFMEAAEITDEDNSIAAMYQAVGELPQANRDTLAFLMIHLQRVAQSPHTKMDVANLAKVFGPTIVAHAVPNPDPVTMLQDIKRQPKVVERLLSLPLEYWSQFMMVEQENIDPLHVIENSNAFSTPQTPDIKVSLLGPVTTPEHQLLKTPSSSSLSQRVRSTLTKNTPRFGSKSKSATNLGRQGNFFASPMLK
The assay is described as follows: MgcRacGAP GTPase-activating activity inhibitors, confirmation, biochemical, ADP Hunter fluorescence, primary and confirmatory (AID 624330). The assay is classed as functional.

Assay [2] in a line: cells. The class given is functional.
Assay [3] has as its target T2, Protein RecA (Mycobacterium tuberculosis, UniProt P9WHJ3).
T2 sequence (P9WHJ3 whole entry): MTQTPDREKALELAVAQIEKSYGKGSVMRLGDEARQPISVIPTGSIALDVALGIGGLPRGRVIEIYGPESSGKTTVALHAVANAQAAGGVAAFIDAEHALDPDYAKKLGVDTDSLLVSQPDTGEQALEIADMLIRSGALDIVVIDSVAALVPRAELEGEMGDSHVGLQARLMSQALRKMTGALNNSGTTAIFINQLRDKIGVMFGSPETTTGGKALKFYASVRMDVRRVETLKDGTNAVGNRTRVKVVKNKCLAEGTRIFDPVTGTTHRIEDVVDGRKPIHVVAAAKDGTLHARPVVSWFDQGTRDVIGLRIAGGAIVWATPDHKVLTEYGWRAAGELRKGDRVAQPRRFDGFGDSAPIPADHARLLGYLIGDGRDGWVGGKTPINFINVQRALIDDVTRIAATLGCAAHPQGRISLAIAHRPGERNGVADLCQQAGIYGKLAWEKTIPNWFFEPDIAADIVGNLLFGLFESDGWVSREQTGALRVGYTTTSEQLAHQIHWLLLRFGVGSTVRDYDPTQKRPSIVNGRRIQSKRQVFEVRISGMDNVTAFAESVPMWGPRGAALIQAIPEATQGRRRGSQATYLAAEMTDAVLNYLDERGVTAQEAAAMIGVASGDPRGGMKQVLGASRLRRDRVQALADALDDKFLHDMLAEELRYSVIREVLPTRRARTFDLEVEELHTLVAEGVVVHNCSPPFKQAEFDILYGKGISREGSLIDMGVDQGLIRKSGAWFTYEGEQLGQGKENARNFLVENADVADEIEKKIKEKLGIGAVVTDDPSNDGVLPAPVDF
The assay is described as follows: Fluorescence Cell-Free Homogeneous Dose Retest to Identify Inhibitors of RecA-Intein Splicing Activity. [Related pubchem assays (depositor defined):AID2097, AID2223, AID489010, AID492950]. The assay is classed as functional.

For assay [4], the target named is T3, Replicative DNA helicase DnaB (Mycobacterium tuberculosis, UniProt P9WMR3).
T3 sequence (P9WMR3 whole entry): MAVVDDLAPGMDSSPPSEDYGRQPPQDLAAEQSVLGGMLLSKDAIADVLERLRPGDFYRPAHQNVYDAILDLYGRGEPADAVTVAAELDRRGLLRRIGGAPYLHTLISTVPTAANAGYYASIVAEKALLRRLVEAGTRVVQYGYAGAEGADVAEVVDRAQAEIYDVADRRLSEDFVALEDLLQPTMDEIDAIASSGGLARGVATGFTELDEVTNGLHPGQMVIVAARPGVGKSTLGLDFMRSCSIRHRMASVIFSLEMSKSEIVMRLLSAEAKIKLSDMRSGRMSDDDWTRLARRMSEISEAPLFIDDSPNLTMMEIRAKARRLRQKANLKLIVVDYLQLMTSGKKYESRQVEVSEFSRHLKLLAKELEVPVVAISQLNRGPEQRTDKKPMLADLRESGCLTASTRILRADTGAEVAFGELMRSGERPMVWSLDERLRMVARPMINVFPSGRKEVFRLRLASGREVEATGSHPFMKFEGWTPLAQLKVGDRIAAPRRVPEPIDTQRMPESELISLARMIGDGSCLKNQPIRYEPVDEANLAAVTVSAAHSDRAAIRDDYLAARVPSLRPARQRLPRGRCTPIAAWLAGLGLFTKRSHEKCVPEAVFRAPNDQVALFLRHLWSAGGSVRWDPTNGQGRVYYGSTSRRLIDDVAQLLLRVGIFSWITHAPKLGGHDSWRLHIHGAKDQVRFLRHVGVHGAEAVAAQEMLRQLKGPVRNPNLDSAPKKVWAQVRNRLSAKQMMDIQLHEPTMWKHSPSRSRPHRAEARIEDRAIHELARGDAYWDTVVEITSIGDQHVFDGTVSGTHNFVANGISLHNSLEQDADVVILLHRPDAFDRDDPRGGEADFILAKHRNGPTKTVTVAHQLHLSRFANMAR
The assay is described as follows: DnaB intein splicing inhibitors, dose response, biochemical, cell-free fluorescence (AID 449749). The class given is functional.

A short description of assay [5]: growth suppression of beta-catenin-knockout colon cells, dose response, cell-based, HCT116, human colon tumor (AID 1045).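 Also: HCT116 colon tumor cells with beta catenin knocked out; cells exposed to compound for 60 hours.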 The assay is classed as functional.
Assay [6] is described as follows: growth suppression of PTEN-null colon cells, dose response, cell-based, HCT116 PTEN knockout (AID 1047).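 Also: HCT116 colon tumor cells with PTEN knocked out; cells exposed to compound for 60 hours before readout; potency for loss of cell viability measured by luminescence.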 The class given is functional.
The target in assay [7] is Cytochrome P450 2C9 (Homo sapiens, UniProt P11712).
Cytochrome P450 2C9, sequence (P11712 whole entry): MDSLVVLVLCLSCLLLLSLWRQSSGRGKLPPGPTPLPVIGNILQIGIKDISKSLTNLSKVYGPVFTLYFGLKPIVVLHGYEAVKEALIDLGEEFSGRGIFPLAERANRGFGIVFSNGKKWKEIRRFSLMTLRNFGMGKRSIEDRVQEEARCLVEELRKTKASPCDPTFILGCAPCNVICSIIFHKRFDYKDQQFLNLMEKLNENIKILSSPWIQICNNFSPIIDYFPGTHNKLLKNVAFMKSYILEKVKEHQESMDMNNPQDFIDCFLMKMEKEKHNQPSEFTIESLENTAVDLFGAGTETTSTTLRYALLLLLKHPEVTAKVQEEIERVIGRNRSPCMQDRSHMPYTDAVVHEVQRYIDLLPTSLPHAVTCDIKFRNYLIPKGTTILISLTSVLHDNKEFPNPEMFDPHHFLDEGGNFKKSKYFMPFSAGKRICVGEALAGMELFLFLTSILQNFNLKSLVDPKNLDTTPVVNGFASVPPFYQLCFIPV
The target of assay [8] is T4, Cytochrome P450 1A2 (Homo sapiens, UniProt P05177).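 Also: PubChem cytochrome P450 panel assay, CYP1A2 panel member.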
T4 sequence (P05177 whole entry): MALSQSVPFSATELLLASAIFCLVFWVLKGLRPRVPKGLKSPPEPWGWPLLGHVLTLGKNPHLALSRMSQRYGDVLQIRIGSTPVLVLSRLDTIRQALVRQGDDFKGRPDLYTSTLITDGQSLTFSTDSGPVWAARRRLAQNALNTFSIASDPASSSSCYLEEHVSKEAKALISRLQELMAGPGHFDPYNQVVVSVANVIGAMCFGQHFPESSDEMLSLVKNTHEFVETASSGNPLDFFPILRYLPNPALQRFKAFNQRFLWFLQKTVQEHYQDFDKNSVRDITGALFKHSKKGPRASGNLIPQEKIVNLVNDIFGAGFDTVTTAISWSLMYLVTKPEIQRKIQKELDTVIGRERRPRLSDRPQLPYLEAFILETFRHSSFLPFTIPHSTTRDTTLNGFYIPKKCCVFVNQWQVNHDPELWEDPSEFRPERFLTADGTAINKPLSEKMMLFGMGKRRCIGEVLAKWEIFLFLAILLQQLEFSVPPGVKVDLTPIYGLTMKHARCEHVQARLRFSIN

Assay [9] has as its system Streptococcus sp. 'group A'. Kind of assay: growth inhibition of control SK(-) GAS strain, dose response, counter-screen for streptokinase expression inhibitor project, luminescence, kanamycin, BacTiterGlo, confirmation (AID 1900). The class given is functional, organism-based.
For assay [10], the system named is Streptococcus. Kind of assay: Group A Streptococcus viability loss, dose response, counter-screen for streptokinase expression inhibitor project, luminescence, BacTiterGlo (AID 1915).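 Also: potency for reduction of bacterial viability or growth.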 The assay is classed as functional, organism-based.
Assay [11] deals with T5, Streptokinase A (Streptococcus pyogenes serotype M1, UniProt P10520).
T5 sequence (P10520 whole entry): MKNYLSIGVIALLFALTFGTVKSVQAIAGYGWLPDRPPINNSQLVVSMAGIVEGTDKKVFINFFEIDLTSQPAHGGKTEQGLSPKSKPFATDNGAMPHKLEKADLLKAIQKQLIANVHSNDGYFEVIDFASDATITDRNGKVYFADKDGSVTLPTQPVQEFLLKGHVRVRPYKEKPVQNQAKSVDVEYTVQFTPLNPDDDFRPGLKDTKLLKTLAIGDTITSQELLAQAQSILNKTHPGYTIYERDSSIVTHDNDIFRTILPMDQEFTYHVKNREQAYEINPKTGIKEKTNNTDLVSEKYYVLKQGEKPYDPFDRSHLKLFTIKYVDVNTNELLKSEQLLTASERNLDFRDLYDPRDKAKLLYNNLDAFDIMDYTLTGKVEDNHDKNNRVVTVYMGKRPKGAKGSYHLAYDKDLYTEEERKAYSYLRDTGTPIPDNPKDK
Kind of assay: S. pyogenes streptokinase expression inhibitors, potency, dose response, plasminogen activation absorbance, OD405 (AID 1914).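 Also: secreted streptokinase activity via plasminogen activation per viability signal from cell pellet.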 The assay is classed as functional, Streptococcus pyogenes M1 GAS.

For assay [12], the target named is Cytochrome P450 2D6 (Homo sapiens, UniProt P10635).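 Also: CYP2D6 member of a cytochrome P450 panel assay.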
Cytochrome P450 2D6, sequence (P10635 whole entry): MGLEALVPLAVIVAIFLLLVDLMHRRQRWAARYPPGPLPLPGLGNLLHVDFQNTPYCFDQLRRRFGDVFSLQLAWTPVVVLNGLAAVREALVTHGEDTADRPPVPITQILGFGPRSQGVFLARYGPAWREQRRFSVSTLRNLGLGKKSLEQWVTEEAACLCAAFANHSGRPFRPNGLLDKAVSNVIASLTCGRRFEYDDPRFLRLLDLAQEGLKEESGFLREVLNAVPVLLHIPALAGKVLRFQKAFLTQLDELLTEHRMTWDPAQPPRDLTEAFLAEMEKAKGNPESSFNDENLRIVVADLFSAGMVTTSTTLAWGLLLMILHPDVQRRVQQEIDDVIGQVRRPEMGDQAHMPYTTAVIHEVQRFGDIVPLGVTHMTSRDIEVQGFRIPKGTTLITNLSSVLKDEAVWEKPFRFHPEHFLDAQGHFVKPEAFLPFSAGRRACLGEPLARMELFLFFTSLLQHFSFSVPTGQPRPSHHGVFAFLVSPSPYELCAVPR

As to `COc1ccccc1N1CCN(CCCOc2ccc(F)cc2)CC1`, in assay [1], the 50% inhibitory concentration (IC50) was 122 µM (active).

Take `COc1ccc(-c2cc3ccccc3n2CC(O)CN2CCCCC2)cc1` (stereo not given): the IC50 in assay [1] is 110 µM (active). Turning to `N#CC(C(=O)NCc1ccco1)c1nc2ccccc2nc1N1CCOCC1` (stereo not given), in assay [2], the half-maximal inhibitory concentration (IC50) is 49 µM (active).

For `CCCc1nc(SCC(=O)N2CCc3ccccc3C2)c2ccccc2n1`, the EC50 in assay [3] is 14.6 µM (active). For the same compound, the AC50 in [4] was 14.1 µM (active). With `CN(C)/C=C/C(=O)c1ccc2noc(-c3ccc(F)cc3)c2c1`, the EC50 in [3] is > 380 µM (inactive). Moreover, the AC50 in assay [4] was > 380 µM (inactive). On to `CC1(C)N=C(SCC(=O)Nc2ccc(Cl)cc2Cl)C(c2ccccc2)=N1`, for which the EC50 in assay [3] is 17.7 µM (active). Besides, the AC50 in assay [4] was 10.7 µM (active).

Regarding `O=C(NCc1cccnc1)NC1(C(F)(F)F)Oc2ccccc2O1`, the concentration giving a half-maximal response (EC50) in [5] was 23.3 µM (active); in assay [6] it was 25.1 µM (active). The like results for `CCOc1cc(N2CCOCC2)c(OCC)cc1NC(=O)Cc1ccccc1OC` were, in that order, 21.2 µM (active) and 23.9 µM (active). `CCCSc1nc(O)c2cnn(-c3ccc(C)cc3)c2n1`: the figures for the EC50 in assay [5] and in [6] were 20.7 µM (active) and 22.2 µM (active), respectively.

With `Cc1ccccc1OCCN=C(S)Nc1ccccc1`, the AC50 is 10 µM (inconclusive) in [7] and 3.16 µM (inconclusive) in assay [8]. Consider `Cc1ccc2oc(=O)c3cc(C(=O)NCCCN4CCCCCC4)sc3c2c1`, for which the 50% inhibitory concentration (IC50) in assay [2] is > 50 µM (active). As for `COc1cccc(C(=O)OCC(=O)Nc2nnc(-c3ccccc3)o2)c1`, the results for the half-maximal effective concentration (EC50) in assay [9], in assay [10] and in [11] were 7.55 µM (active), 60.9 µM (active) and > 150 µM (not active), respectively. The IC50 in assay [2] was 14.8 µM (active).

As to `CCn1c(CC(=O)Nc2ccc(C)c(Cl)c2)nnc1SCC(=O)Nc1nc(C)cs1`, the figures for the 50% effective concentration (EC50) in [5] and in [6] were 27.2 µM (active) and 25.4 µM (active), respectively. As to `Cn1cc(C(=O)NCCN2CCN(c3cccc(Cl)c3)CC2)c2c3ccccc3n(C)c2c1=O`, the results for the EC50 in assay [5] and in [6] were 63 µM (active) and 46.8 µM (active), respectively. `COC(=O)COc1ccc2c(=O)c(-c3ccccc3)coc2c1`: the IC50 in [2] was < 0.1 µM (active). Turning to `Nc1ccccc1Nc1ccccc1`, the figures for the IC50 in assay [1] and in assay [2] were 36.1 µM (active) and 1.28 µM (active), respectively. As for `COc1ccc(NC2CCCN(C(=O)CCC3=NNC(=O)CC3)C2)cc1` (stereo not given), the IC50 in assay [1] is 126 µM (active). For the compound `Cc1ccc(C)c(NS(=O)(=O)c2ccc3c(c2)Cc2cc(S(=O)(=O)Nc4cc(C)ccc4C)ccc2-3)c1`, the concentration giving a half-maximal response (EC50) was 11.2 µM (active) in assay [5] and 9.63 µM (active) in assay [6]. In the case of `Cc1ccc(-n2c(=S)[nH]c3sc4c(c3c2=O)CCC4)cc1`, in assay [1], the concentration for half-maximal inhibition (IC50) is 85.6 µM (active). Regarding `Cc1cccc(NC(=O)COC(=O)CCc2c[nH]c3ccccc23)c1`, in assay [2], the concentration for half-maximal inhibition (IC50) is 0.71 µM (active).

With `CC1=NNC(=O)C1Br` (stereo not given), in assay [1], the half-maximal inhibitory concentration (IC50) was 55.9 µM (active). On the same count and under the same terms, the result for `Nc1ccc(C(=O)N/N=C/c2ccc(N3CCOCC3)s2)cc1` reads 16.5 µM (active). With `CCn1nc(C)c(C2C(C#N)=C(N)Oc3[nH]nc(C)c32)c1C` (stereo not given), the EC50 in assay [3] was 12.5 µM (active). Moreover, the AC50 in assay [4] is 88.9 µM (active).

In the case of `CCCCn1c(S)nc2c(=O)n(C)c(=O)n(C)c21`, the concentration for half-maximal inhibition (IC50) in [1] is 20.9 µM (active).

Take `CCN(CC)c1ccc(S(=O)(=O)N2CCOCC2)cc1NC(=O)COC(=O)/C=C/c1ccc(O)c(OC)c1`: the IC50 in assay [1] is 108 µM (active). As for `O=C(C/C=N/OCc1ccc(Cl)cc1Cl)c1ccc(Cl)cc1`, the AC50 in [12] and in [7] was 17.8 µM (inconclusive) throughout. As for `CN1/C(=C/C=N/NC(=O)c2ccc([N+](=O)[O-])cc2)C(C)(C)c2ccccc21`, the half-maximal effective concentration (EC50) in [5] is 23.2 µM (active); in assay [6] it was 24.3 µM (active). In the case of `COc1cc(/C=N/NC(=O)C(=O)Nc2ccccn2)ccc1O`, in assay [1], the IC50 is 22.6 µM (active).
